This test has as its target T1, Human AMPK α2β2γ1 (Homo sapiens, UniProt O43741+P54646).
T1 construct: The full length cDNAs of human AMPK β2 (NM_005399.3) and human AMPK α2 (NM_006252.3); The full length cDNAs of human AMPK β2 (NM_005399.3); the full length cDNA of human AMPK γ1 (NM_002733.3) had been inserted into pET28b(+); 6×His (N); made in house; host or cells: Escherichia coli BL21 CodonPlus (DE3)-RIL
Kind of test: Test Example 2: activation of phosphorylated human AMPK α2β2γ1 (mobility-shift kinase assay, FL-Peptide 7). It counts as biochemical. Particulars: for EC150: compound concentration showing 150% relative to the control (100%), human AMPK α2β2γ1 phosphorylated with CaMKK2; for Emax: maximum rate of increase in activity within the measurement range, control = 100%. The procedure: The full length cDNAs of human AMPK β2 (NM_005399.3) and human AMPK α2 (NM_006252.3) were inserted into the MCS1 and MCS2 of the pETDuet-1 vector to prepare a human AMPK β2 and human AMPK α2 (6×His tag at the 5′ terminus) expressing plasmid. The plasmid was cotransfected with an expression plasmid, in which the full length cDNA of human AMPK γ1 (NM_002733.3) had been inserted into pET28b(+), into BL21 CodonPlus (DE3)-RIL to obtain an expression strain. The expression strain was cultured in TB medium, followed by induction with 0.5 mM IPTG, and cultured at 25° C. for 3 hours and then harvested. After ultrasonication, supernatant was collected and applied to Histrap FF column (GE) and RESOUECE Q column (GE) to prepare 12.5 mg of purified sample containing three types of subunit from 1.8 L of broth.
An expression vector, in which the full length cDNA of human CAMKK β (NM_172226.1) had been inserted into pGEX-6P-3, was transfected into BL21 Star (DE3). The expression strain was cultured in TB medium, followed by induction with 0.5 mM IPTG, and cultured at 25° C. for 3 hours and then harvested. After ultrasonication, supernatant was collected and applied to GSTrap FF column (GE) to prepare 14 mg of GST-fused CAMKK β from 720 ml of broth.
Thus, phosphorylation treatment was carried out as pretreatment.
Human AMPK α2β2γ1 in an amount to give a conversion rate of approximately 10% by reaction for 2 hours, and CaMKK2 in an amount capable of sufficiently imparting activity to AMPK for one hour were mixed in a buffer solution consisting of a 50 mM HEPES-NaOH buffer solution (pH 7.0), 100 mM NaCl, 5 mM magnesium chloride, 0.1% bovine serum albumin, 0.2 mM sodium orthovanadate(V), 1 mM ethylene glycol-bis(2-aminoethyl ether)-N,N,N′,N′-tetraacetic acid (EGTA), 5 mM disodium β-glycerophosphate, 1 mM dithiothreitol and 0.2 mM ATP, and the resulting liquid was left to stand at 25° C. for 1 to 1.5 hours to sufficiently phosphorylate AMPK.
After that, to the enzyme liquid, which had been subjected to phosphorylation treatment, a compound dissolved in DMSO was added so as to have a 1% DMSO concentration. The resulting liquid was left to stand for 10 minutes.
To the liquid, a substrate solution consisting of a 50 mM HEPES-NaOH buffer solution (pH 7.0), 100 mM NaCl, 10 mM magnesium chloride, 0.1% bovine serum albumin, 0.2 mM sodium orthovanadate(V), 1 mM ethylene glycol-bis(2-aminoethyl ether)-N,N,N′,N′-tetraacetic acid (EGTA), 5 mM disodium β-glycerophosphate, 2 mM dithiothreitol, 0.4 mM ATP and 3 μM FL-Peptide 7 (manufactured by Caliper Life Sciences, Inc.) was added in equal amount (10 μl in total). The resulting liquid was allowed to react at 25° C. for 2 hours, then 10 μl of 20 mM EDTA was added thereto to stop the reaction.
To detect phosphorylated fluorescent substrates, the reaction mixture was applied to a measuring device, LabChip EZ Reader II manufactured by Caliper Life Science, Inc., for detecting fluorescence by using differences in mobility due to differences in charge. The setting conditions for the device were pressure, −1.5 PSI; upstream voltage, −2250 V; downstream voltage, −400 V; post sample buffer sip time, 40 seconds; final delay, 120 seconds; and peak order, Product First.
A conversion rate was calculated from the peak heights of the obtained substrate and product. The conversion rate when not containing a compound was used as a control, and a concentration dependent curve was made by plotting the rate of increase in activity to the control at each concentration of a compound.

Each structure is given as a SMILES string. Values joined by “and” are separate entries in the source; they are usually repeats but may differ in a detail not shown here. Equal entries are not always repeated. Where two headings read alike, the source gives them in different places.

T1 sequence (P54646 whole entry): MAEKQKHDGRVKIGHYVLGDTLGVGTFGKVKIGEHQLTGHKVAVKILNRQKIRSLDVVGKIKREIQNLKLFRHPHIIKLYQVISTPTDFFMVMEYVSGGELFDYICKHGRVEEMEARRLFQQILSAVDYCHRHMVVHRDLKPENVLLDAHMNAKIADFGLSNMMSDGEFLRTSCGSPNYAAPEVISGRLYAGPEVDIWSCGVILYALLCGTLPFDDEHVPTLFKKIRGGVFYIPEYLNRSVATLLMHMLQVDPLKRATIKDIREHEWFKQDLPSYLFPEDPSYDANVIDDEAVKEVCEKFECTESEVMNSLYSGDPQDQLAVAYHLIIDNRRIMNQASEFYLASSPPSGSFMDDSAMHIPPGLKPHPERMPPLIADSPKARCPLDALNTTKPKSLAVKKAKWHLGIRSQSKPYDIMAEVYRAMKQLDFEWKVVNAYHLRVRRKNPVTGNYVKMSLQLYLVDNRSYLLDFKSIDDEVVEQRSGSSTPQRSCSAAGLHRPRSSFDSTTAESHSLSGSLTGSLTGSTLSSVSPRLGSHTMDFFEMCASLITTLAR
T1 sequence (O43741 whole entry): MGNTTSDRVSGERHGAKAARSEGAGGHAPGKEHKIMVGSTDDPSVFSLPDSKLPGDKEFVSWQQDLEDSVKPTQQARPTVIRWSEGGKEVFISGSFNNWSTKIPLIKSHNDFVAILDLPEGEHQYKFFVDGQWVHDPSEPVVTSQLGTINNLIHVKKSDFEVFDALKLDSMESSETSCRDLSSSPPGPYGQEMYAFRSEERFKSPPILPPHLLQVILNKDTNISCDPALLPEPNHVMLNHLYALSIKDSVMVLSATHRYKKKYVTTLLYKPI
T1 sequence (P54619 whole entry partner): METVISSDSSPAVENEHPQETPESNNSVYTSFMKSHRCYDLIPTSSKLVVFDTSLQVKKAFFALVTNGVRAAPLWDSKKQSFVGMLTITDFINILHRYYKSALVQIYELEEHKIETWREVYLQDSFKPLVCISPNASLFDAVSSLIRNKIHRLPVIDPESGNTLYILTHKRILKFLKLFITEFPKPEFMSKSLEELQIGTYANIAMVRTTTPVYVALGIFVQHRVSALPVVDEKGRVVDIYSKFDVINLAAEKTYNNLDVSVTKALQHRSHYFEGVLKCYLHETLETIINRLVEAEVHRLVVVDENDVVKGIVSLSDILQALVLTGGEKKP

As for `C[S+]([O-])c1ccc(-c2ccc(-c3nc4cc(O[C@@H]5CO[C@H](CO)C5)[nH]c4cc3F)cc2)cc1` (single isomer, unassigned) [Compound I-2-06], the EC150 is 0.46 nM. For the same compound, the Emax (read-out: Emax) came to 621%.

As for `C[S+]([O-])c1ccc(-c2ccc(-c3nc4cc(O[C@@H]5CO[C@H](CO)C5)[nH]c4cc3F)cc2)cc1` (single isomer, unassigned) [Compound I-2-07], the EC150 came out at 0.68 nM and the Emax was 638%.

Consider `C[S+]([O-])c1ccc(-c2ccc(-c3nc4cc(O[C@@H]5CO[C@H]6[C@@H]5OC[C@H]6O)[nH]c4cc3F)cc2)cc1` (single isomer, unassigned) [Compound I-2-08], for which the EC150 is listed as 1.6 nM. The Emax (read-out: Emax) is 598%.

On to `C[S+]([O-])c1ccc(-c2ccc(-c3nc4cc(O[C@@H]5CO[C@H]6[C@@H]5OC[C@H]6O)[nH]c4cc3F)cc2)cc1` (single isomer, unassigned) [Compound I-2-09], for which the EC150 stood at 1.9 nM and the Emax was 598%.

Regarding `CS(C)(=O)=Nc1ccc(-c2ccc(-c3nc4cc(O[C@H]5CCOC5)[nH]c4cc3Cl)cc2)cc1` [Compound I-1-01], the EC150 stood at 24 nM. For the setting “read-out: Emax”, the maximal effect (Emax) is 282%.

With `COC(=O)NC1CCN(c2ccc(-c3nc4cc(O[C@@H]5CO[C@H](CO)C5)[nH]c4cc3F)cc2)CC1` [Compound I-1-03], the EC150 stood at 9.8 nM. The Emax (read-out: Emax) was 556%.

Take `CS(C)(=O)=Nc1ccc(-c2ccc(-c3nc4cc(O[C@H]5CO[C@H](CO)[C@@H](O)C5)[nH]c4cc3F)cc2)cc1` [Compound I-1-04]: the EC150 is recorded as 6.2 nM. Further, for the setting “read-out: Emax”, the Emax is 332%.

Consider `CS(C)(=O)=Nc1ccc(-c2ccc(-c3nc4cc(O[C@@H]5CC[C@@H](CO)OC5)[nH]c4cc3F)cc2)cc1` [Compound I-1-06], for which the EC150 amounted to 19 nM. Under “read-out: Emax”, the Emax worked out at 263%.

With `CO[C@@H]1CO[C@H]2[C@@H]1OC[C@H]2Oc1cc2nc(-c3ccc(-c4ccc(N=S(C)(C)=O)cc4)cc3)c(F)cc2[nH]1` [Compound I-1-07], the EC150 was found to be 15 nM. Besides, the Emax (read-out: Emax) turned out to be 189%.

On to `CNC(=O)Nc1ccc(-c2ccc(-c3nc4cc(O[C@@H]5CO[C@H]6[C@@H]5OC[C@H]6O)[nH]c4cc3F)cc2)cc1` [Compound I-1-08], for which the EC150 is on record as 4.7 nM. In addition, the Emax (read-out: Emax) stood at 444%.

With `O=C(c1ccc(-c2ccc(-c3nc4cc(O[C@@H]5CO[C@H]6[C@@H]5OC[C@H]6O)[nH]c4cc3F)cc2)cc1)N1CCCC1` [Compound I-1-09], the EC150 is reported as 4.8 nM. The Emax (read-out: Emax) was 475%.

Take `CCOC(=O)NC1CCN(c2ccc(-c3nc4cc(O[C@@H]5CO[C@H]6[C@@H]5OC[C@H]6O)[nH]c4cc3F)cc2)CC1` [Compound I-1-10]: the EC150 is given as 13 nM. For the same compound, the Emax (read-out: Emax) is 490%.

In the case of `CCC(=O)NC1CCN(c2ccc(-c3nc4cc(O[C@@H]5CO[C@H]6[C@@H]5OC[C@H]6O)[nH]c4cc3F)cc2)CC1` [Compound I-1-12], the Emax was 497% and 523%.

In the case of `CCOC(=O)N[C@H]1CC[C@H](c2ccc(-c3nc4cc(O[C@@H]5CO[C@H]6[C@@H]5OC[C@H]6O)[nH]c4cc3F)cc2)CC1` [Compound I-1-14], the EC150 is on record as 24 nM. Besides, under “read-out: Emax”, the Emax stood at 513%.

Take `O[C@@H]1CO[C@H]2[C@@H]1OC[C@H]2Oc1cc2nc(-c3ccc(-c4ccc(C5=NCCO5)cc4)cc3)c(F)cc2[nH]1` [Compound I-1-15]: the EC150 is 0.58 nM. In addition, where the note is “read-out: Emax”, the Emax was 525%.

For the compound `CS(=O)(=O)NC1CC=C(c2ccc(-c3nc4cc(O[C@@H]5CO[C@H]6[C@@H]5OC[C@H]6O)[nH]c4cc3F)cc2)CC1` (stereo partly drawn) [Compound I-1-17], the EC150 was found to be 3.4 nM. Further, for the setting “read-out: Emax”, the Emax is 483%.

Take `C[S@](=O)(=Nc1ccc(-c2ccc(-c3nc4cc(O[C@@H]5CO[C@H]6[C@@H]5OC[C@H]6O)[nH]c4cc3F)cc2)cc1)c1ccccc1` [Compound I-1-18]: the EC150 came out at 19 nM. Moreover, the Emax (read-out: Emax) was 415%.

Consider `C[S@@](=O)(=Nc1ccc(-c2ccc(-c3nc4cc(O[C@@H]5CO[C@H]6[C@@H]5OC[C@H]6O)[nH]c4cc3F)cc2)cc1)c1ccccc1` [Compound I-1-19], for which the EC150 was determined as 5.8 nM. Also, the Emax (read-out: Emax) is 477%.

Regarding `COc1cc(-c2ccc(N=S3(=O)CCCC3)cc2)ccc1-c1nc2cc(O[C@@H]3CO[C@H]4[C@@H]3OC[C@H]4O)[nH]c2cc1F` [Compound I-1-20], the EC150 turned out to be 8.3 nM. The Emax (read-out: Emax) came out at 457%.

With `COC(=O)NC1CC=C(c2ccc(-c3nc4cc(O[C@@H]5CO[C@H]6[C@@H]5OC[C@H]6O)[nH]c4cc3F)cc2)CC1` (stereo partly drawn) [Compound I-1-22], the EC150 was found to be 3.8 nM. In addition, the Emax (read-out: Emax) was 422%.

`COC(=O)NC1CC=C(c2ccc(-c3nc4cc(O[C@@H]5CO[C@H]6[C@@H]5OC[C@H]6O)[nH]c4cc3F)cc2)CC1` (stereo partly drawn) [Compound I-1-23]: the EC150 worked out at 2.9 nM and the maximal effect (Emax) stood at 436%.

As for `CN1CCC(Oc2ccc(-c3ccc(-c4nc5cc(O[C@@H]6CO[C@H]7[C@@H]6OC[C@H]7O)[nH]c5cc4F)cc3)cc2)C1` (stereo partly drawn) [Compound I-1-26], the EC150 turned out to be 1.5 nM. Also, where the note is “read-out: Emax”, the Emax came to 353%.

As to `O[C@@H]1CO[C@H]2[C@@H]1OC[C@H]2Oc1cc2nc(-c3ccc(-c4ccc(OC5COC5)cc4)cc3)c(F)cc2[nH]1` [Compound I-1-28], the EC150 turned out to be 15 nM. Besides, the Emax (read-out: Emax) turned out to be 596%.

Consider `CS(C)(=O)=Nc1ccc(-c2ccc(-c3nc4cc(O[C@@H]5CO[C@H]6[C@@H]5OC[C@H]6O)[nH]c4cc3Cl)cc2)cc1` [Compound I-1-30], for which the EC150 is 1.7 nM. The Emax (read-out: Emax) came to 500%.

Consider `CC(=O)NC1CCN(c2ccc(-c3nc4cc(O[C@@H]5CO[C@H]6[C@@H]5OC[C@H]6O)[nH]c4cc3F)cc2)CC1` [Compound I-1-31], for which the EC150 was found to be 9.5 nM. For the same compound, the Emax (read-out: Emax) turned out to be 539%.

Turning to `CNS(=O)(=O)c1ccc(-c2ccc(-c3nc4cc(O[C@@H]5CO[C@H]6[C@@H]5OC[C@H]6O)[nH]c4cc3F)cc2)nc1` [Compound I-1-32], the EC150 was 8 nM. For the same compound, the Emax (read-out: Emax) stood at 456%.

Consider `CN(C)S(=O)(=O)c1ccc(-c2ccc(-c3nc4cc(O[C@@H]5CO[C@H]6[C@@H]5OC[C@H]6O)[nH]c4cc3F)cc2)nc1` [Compound I-1-33], for which the EC150 is 6.5 nM. Further, the Emax (read-out: Emax) was 464%.

In the case of `CC(C)OC(=O)NC1CCN(c2ccc(-c3nc4cc(O[C@@H]5CO[C@H]6[C@@H]5OC[C@H]6O)[nH]c4cc3F)cc2)CC1` [Compound I-1-34], the EC150 came to 8.6 nM. Under “read-out: Emax”, the Emax came to 518%.

Turning to `CC(=O)Nc1ccc(-c2ccc(-c3nc4cc(O[C@@H]5CO[C@H]6[C@@H]5OC[C@H]6O)[nH]c4cc3F)cc2)cc1` [Compound I-1-35], the EC150 stood at 5.9 nM. The Emax (read-out: Emax) was found to be 432%.

As usually defined, the Emax is the maximal effect, on the per cent scale that the assay sets.

Source of the values: US10478425B2, “5-phenylazaindole derivative having AMPK-activating activity” (Shionogi & Co., Ltd., priority 2016, dated 2019).
